Source: patent US20190231751A1, “TREATMENT OF FIBROTIC DISORDERS WITH JUN N-TERMINAL KINASE INHIBITORS” (Imago Pharmaceuticals, Inc., priority 2016, published 2019)

Assays:
[1] = Rat PK/PD study: plasma compound levels by LC/MS; format: in vivo; settings: female Wistar rats; kainic acid 60 minutes after compound; blood 4 hours post kainic acid
Description: Plasma compound levels for two of the JNK inhibitors, IGP001 (Formula (XXI)) and IGP002 (Formula (XXII)), were obtained using a rat model for pharmaceutical administration of the compounds. Female Wistar rats, 7-9 weeks old, were obtained (SLAC Laboratory Animal Co. Ltd., Shanghai, China), and three groups of animals (n=3 each) received 1) kainic acid and 2) either IGP001 in vehicle, IGP002 in vehicle, or vehicle alone. The animals received the kainic acid 60 minutes after they received the IGP001 in vehicle, IGP002 in vehicle, and or vehicle alone.
For administration, the kainic acid was dissolved in saline, and introduced to the rats using the protocol as generally disclosed in Tse K, Puttachary S, Beamer E, Sills G J, Thippeswamy T (2014) PLoS One 9:e96622. Animals in each group were surgically implanted with catheters in carotid artery using polyurethane tubing and heparin (50 IU/mL)/glucose (50%) solutions as the lumen lock solution. Anaesthetic barbital was used during the surgery. The animals were allowed to recover seven days after surgery.
The animals were euthanized 4 hours post kainic acid administration using CO2 inhalation and blood was collected via cardiac puncture. 5 mL blood was transferred into pre-labled plastic microcentrifuge tubes containing K2-EDTA (0.5M) as anti-coagulant. Plasma levels were determined by a validated LC/MS analysis.

JNK = test: TGF-β1-induced JNK activation in human lung fibroblasts (Western blot); format: cell-based; settings: HFL-1 cells; compound 30 minutes, then TGF-β1 1 ng/ml 30 minutes
Description: (§1) IGP001 and IGP002 are shown to affect TGF-β1-induced MAP kinase activities in human lung fibroblasts. Human fetal lung fibroblasts (HFL-1) (ATCC, Rockville, Md.) are cultured in Ham's F12K medium (American Type Culture Collection) supplemented with 50 U/ml penicillin G sodium, 50 μg/ml streptonycin sulfate (GIBCO BRL, Life Technologies, Inc., Rockville, Md.) and 10% fetal bovine serum (FBS; Equitech-Bio. Inc., Ingram, Tex.) and maintained in humidified 5% CO2 at 37° C. After reaching confluence, the serum content of the medium is reduced to 0.4% FBS for 24 h. The cells are then stimulated with 1 ng/ml TGF-β1 to produce CTGF.
To test the ability of IGP001 and IGP002 to suppress activation of JNK, HFL-1 cells are cultured with 0.1% DMSO (control vehicle), IGP001 or IGP002 at a concentration of […] for 30 minutes, followed by stimulation with TGF-β1 (1 ng/ml) for 30 minutes. Activities of JNK, p38 MAP kinase and ERK are determined by Western blotting whole cell lysates using antibodies specific for phosphorylated, activated forms of JNK, p38 MAP kinase, and ERK. […]
Phosphorylated JNK protein levels are quantified by densitometry. The optical density of the p46 and p54 phosphorylated protein band are corrected for total p46 and p54 protein, respectively, and results are expressed as ratio (%) of control value (TGF-β1-stimulated HFL-1 cells).

ERK = test: TGF-β1-induced ERK activation in human lung fibroblasts (Western blot); format: cell-based; settings: HFL-1 cells; TGF-β1 1 ng/ml
Description: as §1
To test the ability of IGP001 and IGP002 to suppress activation of JNK, HFL-1 cells are cultured with 0.1% DMSO (control vehicle), IGP001 or IGP002 at a concentration of […] for 30 minutes, followed by stimulation with TGF-β1 (1 ng/ml) for 30 minutes. Activities of JNK, p38 MAP kinase and ERK are determined by Western blotting whole cell lysates using antibodies specific for phosphorylated, activated forms of JNK, p38 MAP kinase, and ERK. Two identical experiments independently performed yielded similar results.

SMAD2 = test: TGF-β1-induced SMAD2 phosphorylation in HFL-1 cells (Western blot); format: cell-based, human; settings: TGF-β1 1 ng/ml
Description: TGF-β1 factors initiate signaling by assembling receptor complexes that activate SMAD proteins. IGP001 and IGP002 are tested for their ability to suppress TGF-031 induction of SMAD signaling pathway by detecting the dually phosphorylated (Ser 465/Ser 467) form of SMAD2 by Western blotting against specific anti-phosphokinase antibody.
HFL-1 cells are created as described above in Example 3. HFL-1 cells are cultured with 0.1% DMSO (control vehicle), IGP001 or IGP002 for 30 min before stimulation with TGF-β1 (1 ng/ml) for 4 hours. Total RNA is extracted and hybridized with human CTGF probes, and messenger RNA levels are quantified by densitometry and optical density of CTGF mRNA band was corrected for G3PDH, and results are expressed as ratio (%) of control value (TGF-β1-stimulated HFL-1 cells).
Phosphorylation of SMAD2 following treatment with IGP001 or IGP002 are also determined by Western blotting whole cell lysates using an antibody specific for phosphorylated forms of SMAD2.

[2] = test system: myocardial ischemia-reperfusion; test: Rat model of cardiac ischemia and remodeling; format: in vivo
Description: To study the effects of JNK inhibitors on prevention and/or progression of cardiac infarct size following myocardial infarction, a rat model of cardiac ischemia and remodeling was used. Briefly, adult male Sprague-Dawley rats (Charles River labs) are subjected to 45 minutes normothermic ischemia (left coronary artery occlusion) followed by 48 hours reperfusion. In rodents, myocardial infarct size stabilizes by 48 hour post-ischemia following which events relating to left ventricular (LV) dilatation and remodeling begin. At the onset of reperfusion, animals receive vehicle, IGP001 or IGP002 (10 mg/kg/day) p.o. Infarct size as a percentage of region-at-risk (RAR) is determined using standard Evans Blue and tetrazolium chloride staining of the hearts. Rats are next tested for ischemic ventricular remodeling and cardiac function following treatment with IGP001 and IGP002. Rats subjected to 45 minutes normothermic myocardial ischemia receive vehicle, IGP001 or IGP002 p.o. (10 mg/kg/day, p.o.; twice/day for remainder of study) at onset of reperfusion. Following a 48 hour treatment period, animals are subjected to echocardiography (Philips Envisor C Ultrasound) at week 1 reperfusion and sacrificed at week 8 reperfusion. Myocardial ischemia-reperfusion is associated with the hall mark indices of LV remodeling: increased end-diastolic volume or LV dilatation; increased end-systolic volume (i.e. reduced cardiac output); reduced fractional shortening and ejection fraction. […] To better mimic the clinical scenario of delayed start of treatment, rats are administered with vehicle, IGP001 or IGP002 (10 mg/kg/day) p.o. 3 hours after the onset of reperfusion following a 45 minute myocardial ischemia. Animals are sacrificed at 48 hours reperfusion.

[3] = 10 mg/kg/day p.o. for 48 hours following myocardial ischemia, week 1

O=C(Cn1c(=O)ccc2cc(C(F)(F)F)ccc21)Nc1scc(Br)c1-c1nnc[nH]1 [IGP001, N-(4-bromo-3-(1H-1,2,4-triazol-5-yl)thiophen-2-yl)-2-(2-oxo-6-(trifluoromethyl)quinolin-1(2H)-yl)acetamide]
plasma compound levels versus cellular EC50 [1]: sufficient compound in the plasma of treated animals to exceed cellular EC50 in the periphery
TGF-β1-induced JNK phosphorylation (JNK): suppress TGF-β1-induced JNK phosphorylation in a dose-dependent fashion
TGF-β1-induced ERK activation (ERK): but not p38 MAP Kinase or ERK Activation
amounts of phosphorylated SMAD2 (SMAD2): significantly increase
size of infarction, delayed start of treatment ([2]; 10 mg/kg/day p.o. 3 hours after the onset of reperfusion, 48 hours reperfusion): statistically significant decrease in the size of infarction
postischemic myocardial infarct size ([2]; 10 mg/kg/day p.o. at the onset of reperfusion, 48 hours reperfusion): significant reduction in postischemic myocardial infarct size
LV remodeling (echocardiography) [2, 3]: reduces adverse LV remodeling
cardiac function (echocardiography) [2, 3]: improved cardiac function
